Experimental data from the supplement of paper PMC10883282.
± gives the standard deviation of the averaged measurements.

What was measured:
Assay in all cases: relative viability vs DMSO control (72 h) (fraction); higher = more viable cells
[1] = system: A204
Summary of the method: (§1)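 After seeding at densities set for 80–90% confluence in 384-well plates, sarcoma cell lines waited 24 h before 2.5 µl of serially diluted compound was added. Source plates held 10 mM down to 0.0002 mM. Plates were incubated 72 h at 37 °C with 5% CO2, with 0.1% DMSO vehicle and a 5 µM positive control, and relative viability was taken from ATPLite as percent growth averaged over up to triplicate wells, with 1 set as full and 0 as none.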

[2] = system: G401
Summary of the method: as §1

[3] = system: HT1080
Summary of the method: as §1

[4] = system: KHOS-240S
Summary of the method: as §1

[5] = system: KHOS-NP
Summary of the method: as §1

[6] = system: RD-ES
Summary of the method: as §1

[7] = system: SK-ES-1
Summary of the method: as §1

[8] = system: SW1353
Summary of the method: as §1

[9] = system: SW684
Summary of the method: as §1

[10] = system: SW872
Summary of the method: as §1

[11] = system: SW982
Summary of the method: as §1

[12] = system: SYO-1
Summary of the method: as §1

## CO[C@@H]1[C@H](N(C)C(=O)c2ccccc2)C[C@H]2O[C@]1(C)n1c3ccccc3c3c4c(c5c6ccccc6n2c5c31)C(=O)NC4 [Midostaurin]
[1]; 0.00017 µM
  relative viability: 1.04 ± 0.039
[1]; 0.00051 µM
  relative viability: 1.03 ± 0.017
[1]; 0.00152 µM
  relative viability: 1.02 ± 0.071
[1]; 0.00457 µM
  relative viability: 0.997 ± 0.044
[1]; 0.01372 µM
  relative viability: 1.01 ± 0.022
[1]; 0.04115 µM
  relative viability: 0.961 ± 0.066
[1]; 0.1235 µM
  relative viability: 0.792 ± 0.035
[1]; 0.3704 µM
  relative viability: 0.485 ± 0.013
[1]; 1.111 µM
  relative viability: 0.263 ± 0.028
[1]; 3.333 µM
  relative viability: 0.192 ± 0.017
[1]; 10 µM
  relative viability: 0.157 ± 0.0089
[2]; 0.00017 µM
  relative viability: 0.948 ± 0.029
[2]; 0.00051 µM
  relative viability: 0.976 ± 0.047
[2]; 0.00152 µM
  relative viability: 0.98 ± 0.029
[2]; 0.00457 µM
  relative viability: 0.969 ± 0.029
[2]; 0.01372 µM
  relative viability: 0.953 ± 0.021
[2]; 0.04115 µM
  relative viability: 0.878 ± 0.057
[2]; 0.1235 µM
  relative viability: 0.854 ± 0.012
[2]; 0.3704 µM
  relative viability: 0.678 ± 0.051
[2]; 1.111 µM
  relative viability: 0.436 ± 0.0084
[2]; 3.333 µM
  relative viability: 0.229 ± 0.0045
[2]; 10 µM
  relative viability: 0.159 ± 0.0084
[3]; 0.00017 µM
  relative viability: 1.01 ± 0.023
[3]; 0.00051 µM
  relative viability: 0.999 ± 0.048
[3]; 0.00152 µM
  relative viability: 1.007 ± 0.0057
[3]; 0.00457 µM
  relative viability: 0.986 ± 0.041
[3]; 0.01372 µM
  relative viability: 1.04 ± 0.057
[3]; 0.04115 µM
  relative viability: 0.987 ± 0.044
[3]; 0.1235 µM
  relative viability: 0.9478 ± 0.0065
[3]; 0.3704 µM
  relative viability: 0.716 ± 0.049
[3]; 1.111 µM
  relative viability: 0.406 ± 0.022
[3]; 3.333 µM
  relative viability: 0.31 ± 0.015
[3]; 10 µM
  relative viability: 0.288 ± 0.0062
[4]; 0.00017 µM
  relative viability: 1.04 ± 0.06
[4]; 0.00051 µM
  relative viability: 1.04 ± 0.068
[4]; 0.00152 µM
  relative viability: 1.03 ± 0.063
[4]; 0.00457 µM
  relative viability: 1.04 ± 0.052
[4]; 0.01372 µM
  relative viability: 1.02 ± 0.045
[4]; 0.04115 µM
  relative viability: 0.937 ± 0.071
[4]; 0.1235 µM
  relative viability: 0.797 ± 0.075
[4]; 0.3704 µM
  relative viability: 0.536 ± 0.033
[4]; 1.111 µM
  relative viability: 0.256 ± 0.015
[4]; 3.333 µM
  relative viability: 0.143 ± 0.0039
[4]; 10 µM
  relative viability: 0.09613 ± 0.00046
[5]; 0.00017 µM
  relative viability: 1.04 ± 0.013
[5]; 0.00051 µM
  relative viability: 1.04 ± 0.03
[5]; 0.00152 µM
  relative viability: 1.04 ± 0.016
[5]; 0.00457 µM
  relative viability: 1.038 ± 0.0094
[5]; 0.01372 µM
  relative viability: 1.02 ± 0.028
[5]; 0.04115 µM
  relative viability: 1.02 ± 0.029
[5]; 0.1235 µM
  relative viability: 0.987 ± 0.043
[5]; 0.3704 µM
  relative viability: 0.893 ± 0.069
[5]; 1.111 µM
  relative viability: 0.39 ± 0.007
[5]; 3.333 µM
  relative viability: 0.257 ± 0.018
[5]; 10 µM
  relative viability: 0.271 ± 0.013
[6]; 0.00017 µM
  relative viability: 0.971 ± 0.033
[6]; 0.00051 µM
  relative viability: 0.991 ± 0.034
[6]; 0.00152 µM
  relative viability: 0.982 ± 0.017
[6]; 0.00457 µM
  relative viability: 0.938 ± 0.015
[6]; 0.01372 µM
  relative viability: 0.931 ± 0.025
[6]; 0.04115 µM
  relative viability: 0.923 ± 0.015
[6]; 0.1235 µM
  relative viability: 0.883 ± 0.026
[6]; 0.3704 µM
  relative viability: 0.825 ± 0.043
[6]; 1.111 µM
  relative viability: 0.166 ± 0.014
[6]; 3.333 µM
  relative viability: 0.0737 ± 0.0029
[6]; 10 µM
  relative viability: 0.0525 ± 0.0028
[7]; 0.00017 µM
  relative viability: 0.994 ± 0.04
[7]; 0.00051 µM
  relative viability: 0.969 ± 0.067
[7]; 0.00152 µM
  relative viability: 0.931 ± 0.076
[7]; 0.00457 µM
  relative viability: 0.985 ± 0.049
[7]; 0.01372 µM
  relative viability: 0.987 ± 0.06
[7]; 0.04115 µM
  relative viability: 0.966 ± 0.064
[7]; 0.1235 µM
  relative viability: 0.898 ± 0.044
[7]; 0.3704 µM
  relative viability: 0.266 ± 0.03
[7]; 1.111 µM
  relative viability: 0.0642 ± 0.00092
[7]; 3.333 µM
  relative viability: 0.0543 ± 0.0024
[7]; 10 µM
  relative viability: 0.0611 ± 0.0056
[8]; 0.00017 µM
  relative viability: 0.918 ± 0.033
[8]; 0.00051 µM
  relative viability: 0.927 ± 0.049
[8]; 0.00152 µM
  relative viability: 0.9048 ± 0.00026
[8]; 0.00457 µM
  relative viability: 0.916 ± 0.014
[8]; 0.01372 µM
  relative viability: 0.883 ± 0.037
[8]; 0.04115 µM
  relative viability: 0.879 ± 0.034
[8]; 0.1235 µM
  relative viability: 0.712 ± 0.043
[8]; 0.3704 µM
  relative viability: 0.411 ± 0.013
[8]; 1.111 µM
  relative viability: 0.272 ± 0.012
[8]; 3.333 µM
  relative viability: 0.229 ± 0.0077
[8]; 10 µM
  relative viability: 0.218 ± 0.0078
[9]; 0.00017 µM
  relative viability: 1.08 ± 0.039
[9]; 0.00051 µM
  relative viability: 1.05 ± 0.044
[9]; 0.00152 µM
  relative viability: 1.05 ± 0.026
[9]; 0.00457 µM
  relative viability: 1.02 ± 0.033
[9]; 0.01372 µM
  relative viability: 1.04 ± 0.044
[9]; 0.04115 µM
  relative viability: 1.05 ± 0.028
[9]; 0.1235 µM
  relative viability: 1.08 ± 0.017
[9]; 0.3704 µM
  relative viability: 0.863 ± 0.0087
[9]; 1.111 µM
  relative viability: 0.524 ± 0.0075
[9]; 3.333 µM
  relative viability: 0.406 ± 0.0097
[9]; 10 µM
  relative viability: 0.363 ± 0.008
[10]; 0.00017 µM
  relative viability: 0.976 ± 0.041
[10]; 0.00051 µM
  relative viability: 1 ± 0.04
[10]; 0.00152 µM
  relative viability: 0.965 ± 0.046
[10]; 0.00457 µM
  relative viability: 0.958 ± 0.053
[10]; 0.01372 µM
  relative viability: 0.945 ± 0.096
[10]; 0.04115 µM
  relative viability: 0.896 ± 0.094
[10]; 0.1235 µM
  relative viability: 0.826 ± 0.091
[10]; 0.3704 µM
  relative viability: 0.592 ± 0.022
[10]; 1.111 µM
  relative viability: 0.399 ± 0.019
[10]; 3.333 µM
  relative viability: 0.253 ± 0.013
[10]; 10 µM
  relative viability: 0.219 ± 0.015
[11]; 0.00017 µM
  relative viability: 1 ± 0.064
[11]; 0.00051 µM
  relative viability: 0.978 ± 0.042
[11]; 0.00152 µM
  relative viability: 0.979 ± 0.013
[11]; 0.00457 µM
  relative viability: 0.931 ± 0.051
[11]; 0.01372 µM
  relative viability: 0.93 ± 0.02
[11]; 0.04115 µM
  relative viability: 0.939 ± 0.058
[11]; 0.1235 µM
  relative viability: 0.821 ± 0.085
[11]; 0.3704 µM
  relative viability: 0.375 ± 0.015
[11]; 1.111 µM
  relative viability: 0.19 ± 0.013
[11]; 3.333 µM
  relative viability: 0.124 ± 0.0026
[11]; 10 µM
  relative viability: 0.122 ± 0.0093
[12]; 0.00017 µM
  relative viability: 0.955 ± 0.04
[12]; 0.00051 µM
  relative viability: 0.946 ± 0.029
[12]; 0.00152 µM
  relative viability: 0.941 ± 0.032
[12]; 0.00457 µM
  relative viability: 0.92 ± 0.035
[12]; 0.01372 µM
  relative viability: 0.833 ± 0.025
[12]; 0.04115 µM
  relative viability: 0.755 ± 0.035
[12]; 0.1235 µM
  relative viability: 0.676 ± 0.04
[12]; 0.3704 µM
  relative viability: 0.294 ± 0.019
[12]; 1.111 µM
  relative viability: 0.0535 ± 0.0037
[12]; 3.333 µM
  relative viability: 0.0115 ± 0.0021
[12]; 10 µM
  relative viability: 0.00107 ± 0.0037
